Test results as given in patent US9657017B2, “Crystal form of (R)-praziquantel and preparation method and application thereof” (TONGLI BIOMEDICAL CO., LTD., priority 2013, dated 2017).
Values after ≈ are worked out from the molar mass of the structure shown. Read-outs that look alike come from different tables or passages of the source.

Key:
[1] = Solubility of crystal forms in water and simulated gastric-intestinal fluid; assay type: physicochemical; conditions: 25° C.; for solubility at 18 h: thermodynamic from solid
Description: About 2 mg of each compound was respectively placed in several glass vials, and pure water, simulated gastric fluid (SGF), simulated intestinal fluid under fasted status (FaSSIF), and simulated intestinal fluid under fed status (FeSSIF) were respectively added to prepare a final sample concentration of 2 mg/mL. The samples were sonicated to be dispersed evenly and then rotated 360 degree-wise to equilibrate for 18 hours at room temperature (25° C.). After the equilibration, the samples were visually inspected to check whether they were completely dissolved, and then filtrated through […] filter membrane. The resulted filtrate was diluted with suitable solvent for HPLC analysis.

schistosoma japonicum = assay: In vitro culture anti-schistosoma japonicum activity (worm activity inhibition); assay type: cell-based; conditions: for IC50: spasm or paralysis of schistosoma japonicum considered as active, in vitro culture 37° C., read-out: IC50 ± L95 (median inhibitory concentration, 95% confidence interval)
Description: Comparison of anti-schistosoma japonicum activity between the crystal forms of (R)-praziquantel and praziquantel in in vitro culture experiment, which was specifically as follow: […] An aliquot of the drug solution (5-50 μL) was transferred and diluted with culture medium (prepared by Tyrode's solution and calf serum at 9:1, pH 7.4, containing 100 IU/mL penicillin and 100 IU/mL streptomycin) to a desired concentration (0.0001-100 μg/mL). Japanese white rabbits and Kunming hybrid mice were infected with cercariae of schistosoma japonicum for 5-8 weeks. Under aseptic condition, mesenteric vein and liver were perfused with normal saline, and the recovered schistosomes were washed with Tyrode's solution twice and then transferred into culture medium and cultured at 37° C. for use. […] The worm activity and changes on body surface were observed under stereomicroscope and inverted microscope at room temperature. The active levels of worm were defined as below: • ++++ Worm twitching or rolling intensively; • +++ Worm wriggling or paroxysmally trembling frequently; • ++ Worm migrating freely with enterocinesia; • + Movement of worm weakened and enterocinesia disappeared; • ± No movement of worm was observed under stereomicroscope (×30), and slight movement of mouth and ventral suckers were observed under inverted microscope (×250); • − No movement of worm was observed under inverted microscope (×250); • wherein +++ and ++++ refer to worm excitement; ++ refers to normal worm activity; + and ± refers to inhibition of worm activity; worm was considered to death if the result was still negative after observing for 5 min.

clonorchis sinensis = assay: In vivo anti-parasitic activity in SD rats infected with clonorchis sinensis
Description: Evaluation of in vivo anti-parasitic activity of (R)-praziquantel crystal form in SD rats infected with clonorchis sinensis, which was specifically as follow: Each of total 29 SD rats with 200˜300 g of body weight were given with 30 metacercariae of clonorchis sinensis via gavage intragastrically. On Day 35 post infection, fecal smear examination was conducted, and worm eggs of clonorchis sinensis were found in all of the smears which confirmed successful modeling. Subsequently, the rats were randomly divided into (R)-praziquantel group (n=14) and blank control group (n=15). […] Seven days after the end of the treatment, worms are recovered from the bile ducts under sterility condition. The averaged number of recovered worms, mean recovery rate of worms and cure rate after treatment were calculated, and the results are shown in Table 5.

[2] = rat, in vivo, po, 75 mg/kg
Text: Investigation on characteristic of the plasma concentrations of (R)-praziquantel crystal form in rats after oral administration, which was specifically as follow: […]

[3] = 100 mg/kg gavage twice a day for two days

solubility at 18 h ([1]; FaSSIF (simulated intestinal fluid, fasted), equilibrated 18 hours, read-out: Average solubility) [µg/mL]	solubility at 18 h ([1]; FeSSIF (simulated intestinal fluid, fed), equilibrated 18 hours, read-out: Average solubility) [µg/mL]	solubility at 18 h ([1]; SGF (simulated gastric fluid), equilibrated 18 hours, read-out: Average solubility) [µg/mL]	solubility at 18 h ([1]; Water, equilibrated 18 hours, read-out: Average solubility) [µg/mL]	solubility at 18 h ([1]; water, SGF, FaSSIF and FeSSIF, range over media, read-out: solubility in water and in simulated gastro-intestinal fluid) [µg/mL]	IC50 (schistosoma japonicum) [nM]	Average solubility ([1]; FaSSIF (simulated intestinal fluid, fasted), equilibrated 18 hours) [µg/mL]	Average solubility ([1]; FeSSIF (simulated intestinal fluid, fed), equilibrated 18 hours) [µg/mL]	Average solubility ([1]; SGF (simulated gastric fluid), equilibrated 18 hours) [µg/mL]	Average solubility ([1]; Water, equilibrated 18 hours) [µg/mL]	IC50 relative to that of praziquantel crystal form (schistosoma japonicum; in vitro culture, P<0.01)	area under plasma concentration-time curve [2] [ng·h/mL]	peak plasma concentration [2] [ng/mL]	time to reach peak plasma concentration [2] [min]	SMILES	effect on schistosoma japonicum worms (schistosoma japonicum; in vitro culture)	Cure rate (clonorchis sinensis; [3]) [%]	Mean recovery rate of worms (clonorchis sinensis; [3]) [%]	No. of Cured animal (clonorchis sinensis; 100 mg/kg gavage twice a day for two days, 14 animals, worms recovered 7 days after treatment)	No. of Average of recovered worm, X ± SD (clonorchis sinensis; 100 mg/kg gavage twice a day for two days, worms from bile ducts)	worm body in rat feces (clonorchis sinensis; treatment group)
193 (≈ 618 µM)	313 (≈ 1000 µM)	192 (≈ 615 µM)	199 (≈ 637 µM)	190 to 310 (≈ 608 to 992 µM)	42 ± 18									O=C(C1CCCCC1)N1CC(=O)N2CCc3ccccc3C2C1 (racemic) [Praziquantel crystal form, praziquantel]	induce contraction and paralysis					
					8 ± 4	302	433	303	305	⅕	3572 ± 1793	3132 ± 1440	15	O=C(C1CCCCC1)N1CC(=O)N2CCc3ccccc3[C@@H]2C1 [(R)-praziquantel crystal form, (R)-praziquantel]	induce contraction and paralysis	100	0	14	0	no worm body found
